In ChEMBL document CHEMBL1156808, “Synthesis and characterization of iodinated tetrahydroquinolines targeting the G protein-coupled estrogen receptor GPR30” (J Med Chem, 2010) one finds Drug uptake data, which are given here for one compound.

For this data set, the system named is Muscle tissue. Description: Biodistribution in muscle of iv dosed NCr nu/nu mouse xenografted with GPR30 overexpressing human Hec50 cells after 2 hrs. It is filed as ADME, organism-based. The following applies: in vivo.

Consider `O=C(NCCc1ccc2c(c1)[C@@H]1C=CC[C@@H]1[C@H](c1cc3c(cc1Br)OCO3)N2)Nc1cccc([125I])c1`, for which the Drug uptake is on record as 0.52 % ID/g.
